Results reported in patent publication US9376442B2, “Methylpyrrolopyrimidinecarboxamides” (Takeda GmbH, priority 2009, dated 2016).

target: T1, PDE5A1 (Homo sapiens, UniProt O76074); assay: Inhibition of type 5 phosphodiesterase (PDE5) activity, modified SPA test with human platelet lysate; type: biochemical; conditions: 0.5 μM cGMP, read-out: PDE5A1 inhibitory values [measured as −log IC50 (mol/l)] (converted)
T1 construct: from tissue; host or cells: human platelets from fresh donor blood (10,000 x g supernatant of sonicated lysate)
How it was run: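 Enzyme source is lysate from human platelets (10,000 g supernatant). Compound preincubated 5 min at 37° C in Tris pH 7.4 containing 1 μM motapizone and 10 nM of a PDE2 inhibitor. Reaction started with 0.5 μM cGMP ([3H] tracer) and run 15 min; SPA read-out, IC50 by non-linear regression.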

CCC(=O)N1C[C@@H](O)[C@H](NC(=O)c2c(C)[nH]c3c(-c4cc(OC)ccc4OCC4CC4)ncnc23)C1 (relative stereo) [Example E193, 4-[2-(Cyclopropylmethoxy)-5-methoxyphenyl]-N-[(3R*,4R*)-4-hydroxy-1-propionylpyrrolidin-3-yl]-6-methyl-5H-pyrrolo[3,2-d]pyrimidine-7-carboxamide] and COCC(=O)N1C[C@@H](O)[C@H](NC(=O)c2c(C)[nH]c3c(-c4cc(OC)ccc4OCC4CC4)ncnc23)C1 (relative stereo) [Example E194, 4-[2-(Cyclopropylmethoxy)-5-methoxyphenyl]-N-[(3R*,4R*)-4-hydroxy-1-(methoxyacetyl)pyrrolidin-3-yl]-6-methyl-5H-pyrrolo[3,2-d]pyrimidine-7-carboxamide] fall in the same range of IC50: 1 to 10 nM for the first, 1 to 10 nM for the second.

First: Cc1[nH]c2c(-c3c(OCC4CC4)ccc4c3OCO4)ncnc2c1C(=O)N[C@@H]1CN(C(=O)CO)C[C@H]1O (relative stereo) [Example F9, 4-[5-(Cyclopropylmethoxy)-1,3-benzodioxol-4-yl]-N-[(3R*,4R*)-1-glycoloyl-4-hydroxypyrrolidin-3-yl]-6-methyl-5H-pyrrolo[3,2-d]pyrimidine-7-carboxamide]
Second: Cc1[nH]c2c(-c3ccc(F)cc3OCC3CC3)ncnc2c1C(=O)N[C@@H]1CN(C(=O)CO)C[C@H]1O (relative stereo) [Example F19, 4-[2-(Cyclopropylmethoxy)-4-fluorophenyl]-N-[(3R*,4R*)-4-hydroxy-1-(hydroxyacetyl)pyrrolidin-3-yl]-6-methyl-5H-pyrrolo[3,2-d]pyrimidine-7-carboxamide]
The IC50 of the first is lower: < 1 nM for the first, 1 to 10 nM for the second.

Cc1[nH]c2c(-c3ccc(F)cc3OCC3CC3)ncnc2c1C(=O)N[C@H]1CCN(C(=O)CO)C[C@@H]1O (relative stereo) [Example F21, 4-[2-(Cyclopropylmethoxy)-4-fluorophenyl]-N-[(3S*,4S*)-3-hydroxy-1-(hydroxyacetyl)piperidin-4-yl]-6-methyl-5H-pyrrolo[3,2-d]pyrimidine-7-carboxamide] and Cc1[nH]c2c(-c3cc(F)ccc3OCC3CC3)ncnc2c1C(=O)N[C@@H]1CCN(C(=O)CO)C[C@H]1O (relative stereo) [Example F30, 4-[2-(Cyclopropylmethoxy)-5-fluorophenyl]-N-[(3R*,4R*)-3-hydroxy-1-(hydroxyacetyl)piperidin-4-yl]-6-methyl-5H-pyrrolo[3,2-d]pyrimidine-7-carboxamide] fall in the same range of IC50: 1 to 10 nM for the first, 1 to 10 nM for the second.

COc1ccc(-c2ncnc3c(C(=O)N[C@@H]4CN(C(=O)CO)C[C@H]4O)c(C)[nH]c23)c(OCC2CC2)c1 (relative stereo) [Example F39, 4-[2-(Cyclopropylmethoxy)-4-methoxyphenyl]-N-[(3R*,4R*)-1-glycoloyl-4-hydroxypyrrolidin-3-yl]-6-methyl-5H-pyrrolo[3,2-d]pyrimidine-7-carboxamide] and COc1ccc(OCC2CC2)c(-c2ncnc3c(C(=O)N[C@@H]4CCN(C(=O)CO)C[C@H]4O)c(C)[nH]c23)c1 (relative stereo) [Example F49, 4-[2-(Cyclopropylmethoxy)-5-methoxyphenyl]-N-[(3R*,4R*)-3-hydroxy-1-(hydroxyacetyl)piperidin-4-yl]-6-methyl-5H-pyrrolo[3,2-d]pyrimidine-7-carboxamide] cannot be ordered by IC50: < 1 nM for the first, < 1 nM for the second.

COc1cc(-c2ncnc3c(C(=O)N[C@@H]4CCN(C(=O)CO)C[C@H]4O)c(C)[nH]c23)c(OCC2CC2)cc1F (relative stereo) [Example F71, 4-[2-(Cyclopropylmethoxy)-4-fluoro-5-methoxyphenyl]-N-[(3R*,4R*)-1-glycoloyl-3-hydroxypiperidin-4-yl]-6-methyl-5H-pyrrolo[3,2-d]pyrimidine-7-carboxamide] and COc1cc(-c2ncnc3c(C(=O)N[C@H]4CN(C(=O)CO)CC[C@@H]4O)c(C)[nH]c23)c(OCC2CC2)cc1F (relative stereo) [Example F73, 4-[2-(Cyclopropylmethoxy)-4-fluoro-5-methoxyphenyl]-N-[(3S*,4S*)-1-glycoloyl-4-hydroxypiperidin-3-yl]-6-methyl-5H-pyrrolo[3,2-d]pyrimidine-7-carboxamide] cannot be ordered by IC50: < 1 nM for the first, < 1 nM for the second.
